Results: article PMC9532951, “Identification and characterization of a novel SNAT2 (SLC38A2) inhibitor reveals synergy with glucose transport inhibition in cancer cells” (Frontiers in Pharmacology, 2022)
Several values for one entry are separate records, joined by “and”; a condition that tells them apart may be missing. Identical values can stand only once.

System: SNAT1 and SNAT2
Test: FMP assay: inhibition of glutamine-induced membrane depolarisation in amino acid depleted HCC1806 cells
Format: cell-based, human
Procedure: The FLIPR Membrane Potential Blue Explorer Kit (Molecular Devices) was used to characterise inhibitors and to optimise a high-throughput compound screen. Cells were seeded at approximately 60,000 cells/well on a 96-well plate and allowed to attach and grow overnight in a cell incubator. […] Cells were then washed once with mHBSS and incubated with 50 µl of the mHBSS-resuspended FMP assay dye and 50 µl of mHBSS (with or without inhibitors) and incubated at room temperature for 30 min. The plate was then placed in an EnSpire Multimode plate reader (PerkinElmer) and four sequential measurements of fluorescence were recorded as a baseline reference. Immediately after the baseline measurements were taken, 25 µl of 5 mM glutamine dissolved in mHBSS was injected into each well and the plate was shaken orbitally for 5 s before a series of consecutive fluorescence measurements were taken. The excitation wavelength was set to 530 nm and the emission was detected at 565 nm. The Δ fluorescent signal reported in the figures was taken 30 s after substrate addition. After the assay was complete, the liquid content of the plate was carefully removed, and the cell monolayer inspected to ensure it remained intact throughout the course of the assay.
IC50 were calculated using equation y=ymax(1−x/x+IC50)

[1] = HCC1806, second column group headed UNINDUCED (c11-c19), t=-30 s, glutamine introduced at t=0, replicates 1-3
[2] = HCC1806 UNINDUCED (c1-c9), t=0 s
[3] = HCC1806 UNINDUCED (c1-c9), t=15 s
[4] = HCC1806 UNINDUCED (c1-c9), t=30 s
[5] = HCC1806 UNINDUCED (c1-c9), t=45 s
[6] = HCC1806 UNINDUCED (c1-c9), t=60 s
[7] = HCC1806 UNINDUCED (c1-c9), t=75 s
[8] = HCC1806 UNINDUCED (c1-c9), t=90 s
[9] = HCC1806 UNINDUCED (c1-c9), t=105 s
[10] = HCC1806 UNINDUCED (c1-c9), t=120 s
[11] = HCC1806 UNINDUCED (c1-c9), t=135 s
[12] = HCC1806 UNINDUCED (c1-c9), t=-15 s
[13] = HCC1806 UNINDUCED (c1-c9), t=-30 s, glutamine introduced at t=0, replicates 1-3
[14] = second group headed UNINDUCED (c11-c19), t=0 s
[15] = second group headed UNINDUCED (c11-c19), t=15 s
[16] = second group headed UNINDUCED (c11-c19), t=30 s
[17] = second group headed UNINDUCED (c11-c19), t=45 s
[18] = second group headed UNINDUCED (c11-c19), t=60 s
[19] = second group headed UNINDUCED (c11-c19), t=75 s
[20] = second group headed UNINDUCED (c11-c19), t=90 s
[21] = second group headed UNINDUCED (c11-c19), t=105 s
[22] = second group headed UNINDUCED (c11-c19), t=120 s
[23] = second group headed UNINDUCED (c11-c19), t=135 s
[24] = second group headed UNINDUCED (c11-c19), t=-15 s

NC(=O)CC[C@H](N)C(=O)O [Glutamine, glutamine]
FMP fluorescence reading [1]: 48604 and 53579 and 57451
FMP fluorescence reading [2]: 80152 and 93008 and 95175
FMP fluorescence reading [3]: 81192 and 94874 and 97430
FMP fluorescence reading [4]: 81634 and 95549 and 97622
FMP fluorescence reading [5]: 82112 and 96387 and 97827
FMP fluorescence reading [6]: 82774 and 96256 and 98257
FMP fluorescence reading [7]: 83212 and 96832 and 98303
FMP fluorescence reading [8]: 83103 and 97466 and 98281
FMP fluorescence reading [9]: 83167 and 97358 and 97714
FMP fluorescence reading [10]: 83214 and 97405 and 97828
FMP fluorescence reading [11]: 83426 and 97359 and 98137
FMP fluorescence reading [12]: 80647 and 93663 and 95145
FMP fluorescence reading [13]: 79899 and 92924 and 94884
FMP fluorescence reading [14]: 48277 and 53613 and 57279
FMP fluorescence reading [15]: 87410 and 95992 and 106048
FMP fluorescence reading [16]: 92514 and 100953 and 110310
FMP fluorescence reading [17]: 96611 and 104700 and 113605
FMP fluorescence reading [18]: 98488 and 108054 and 116646
FMP fluorescence reading [19]: 100460 and 110105 and 118023
FMP fluorescence reading [20]: 101322 and 111642 and 119920
FMP fluorescence reading [21]: 102745 and 112818 and 120694
FMP fluorescence reading [22]: 102428 and 112661 and 120909
FMP fluorescence reading [23]: 102525 and 112308 and 120142
FMP fluorescence reading [24]: 48090 and 53580 and 57674

N[C@@H](CCC(=O)NO)C(=O)O [GHX, L-glutamic acid γ-monohydroxamate]
Mean (delta) fluorescence signal (%) (GHX concentration 0.005): 92.4453%
Mean (delta) fluorescence signal (%) (GHX concentration 0.05): 88.1978%
Mean (delta) fluorescence signal (%) (GHX concentration 0.1): 81.9185%
Mean (delta) fluorescence signal (%) (GHX concentration 0.2): 62.0593%
Mean (delta) fluorescence signal (%) (GHX concentration 0.5): 45.7050%
Mean (delta) fluorescence signal (%) (GHX concentration 1): 28.4974%
Mean (delta) fluorescence signal (%) (GHX concentration 3): 5.9801%
FMP fluorescence reading [1]: 80140 and 84104 and 92453
FMP fluorescence reading [2]: 95009 and 106958 and 105072
FMP fluorescence reading [3]: 92832 and 105585 and 105488
FMP fluorescence reading [4]: 92285 and 105041 and 105362
FMP fluorescence reading [5]: 92217 and 104713 and 105477
FMP fluorescence reading [6]: 92501 and 104852 and 105149
FMP fluorescence reading [7]: 92072 and 104235 and 104746
FMP fluorescence reading [8]: 91505 and 104029 and 104931
FMP fluorescence reading [9]: 91498 and 103606 and 105160
FMP fluorescence reading [10]: 91509 and 103340 and 104992
FMP fluorescence reading [11]: 91754 and 103170 and 104515
FMP fluorescence reading [12]: 94947 and 106966 and 104913
FMP fluorescence reading [13]: 94749 and 106497 and 104978
IC50 (glutamine induced depolarisation, HCC1806 AA- (24h), n = 3): 330 ± 160 µM
FMP fluorescence reading [14]: 79859 and 84357 and 91947
FMP fluorescence reading [15]: 80630 and 83515 and 91899
FMP fluorescence reading [16]: 79854 and 83032 and 91748
FMP fluorescence reading [17]: 79700 and 82661 and 90895
FMP fluorescence reading [18]: 79052 and 82273 and 90365
FMP fluorescence reading [19]: 78466 and 81641 and 89825
FMP fluorescence reading [20]: 78374 and 80769 and 89707
FMP fluorescence reading [21]: 77755 and 80422 and 88694
FMP fluorescence reading [22]: 77065 and 79988 and 88225
FMP fluorescence reading [23]: 76289 and 79358 and 87841
FMP fluorescence reading [24]: 80373 and 84318 and 91914
